Measured values taken from patent US12636300B2, “Methods of treatment and maintenance therapy for bladder cancer using gemcitabine” (Janssen Biotech, Inc., priority 2017, dated 2026).

Columns and labels:
[1] = tested on: muscle-invasive urothelial cell carcinoma of the bladder; experiment: Clinical response assessment after TAR-200 induction (cystoscopy, CT/MRI/PET, biopsy); type: in vivo, human
Procedure: (§1) Subjects receive the first TAR-200 transurethrally via the TARIS Inserter on Study Day 0. On Study Day 21 (±3 days), this first TAR-200 will be removed via flexible or rigid cystoscopy, and then the second TAR-200 will be placed. TAR-200 is an intravesicular device that contains 225 mg of gemcitabine. This removal/replacement procedure is repeated for a third and fourth dosing cycle in the induction period on Study Days 42 (±3 days), and 63 (±3 days), respectively. The fourth TAR-200 will be removed on Study Day 84 (±3 days), and the 3-month response assessment will be conducted.
During the maintenance period, a 21-day dosing cycle occurs every quarter (3 months) starting at approximately 6 months. Subjects may continue to undergo quarterly dosing cycles for 3 dosing cycles.
All subjects are assessed for clinical response every 3 months by cystoscopy, pelvic computed tomography (CT)/magnetic resonance imaging (MRI)/positron emission tomography (PET), and biopsy (at 12 weeks only, unless clinically indicated). Subjects are also assessed for symptom control at 3, 6, 9, and 12 weeks, and approximately every month during the maintenance period.
The secondary endpoints are proportion of subjects with clinical complete response (cCR), clinical partial response (cPR), stable disease (SD), and progression on the basis of visual lesions on cystoscopy, pelvic CT/MRI/PET, and biopsy. For purposes of this study, cCR means no evidence of the disease in the bladder or notes. cPR means in the previously N0 subject, a down staging in bladder tumor burden to <pT2 disease and no evidence of nodal disease burden or in the N1-N3 subject: a down staging in bladder tumor burden to <pT2 disease and no evidence of an increase in the size of nodal disease burden or no evidence of down staging in bladder tumor burden and a decrease in the size of nodal disease burden. Stable disease means persistent MIBC without evidence of metastasis. Progression means M1 disease or significant increase in burden of disease in bladder based upon cystoscopy and Ct/MRI/PET. […]

[2] = Safety and tolerability of 4 consecutive 21 day TAR-200 dosing cycles; type: in vivo, human; details: four consecutive 3-week delivery periods; patients unfit for radical cystectomy
Procedure: as §1
The primary endpoint is assessment of safety and tolerability of 4 consecutive 21 day TAR-200 dosing cycles.
Twenty three patients were enrolled in the study as described in Example 1. The age range among the enrolled patients is from 50 to 98. The mean age is 82.6, and the median age is 84. The patients were treated and assessed according to the methods described therein. Patients that accomplished a complete response, partial response or stable disease after the induction phase received the maintenance phase treatment.

Structure (SMILES): Nc1ccn([C@@H]2O[C@H](CO)[C@@H](O)C2(F)F)c(=O)n1 [gemcitabine]
- duration of durable effect after the induction therapy ([1]; after the induction therapy): at least 100 days
- objective response rate (ORR) ([1]; per protocol basis, end of induction period (Day 84)): 80%
- complete response rate ([1]; per protocol basis, end of induction period (Day 84), ten patients who completed four cycles): 50%
- tolerability of four consecutive doses (induction) [2]: well tolerate
